Measured values taken from US11578056B2, “Solid forms comprising (S)-2-(2,6-dioxopiperidin-3-yl)-4-((2-fluoro-4-((3-morpholinoazetidin-1-yl)methyl)benzyl)amino)isoindoline-1,3-dione and salts thereof, and compositions comprising and methods of using the same” (Celgene Corporation, priority 2019, dated 2023).

Legend:
Assay type in all cases: physicochemical
[1] = Estimated solubility of free base and salt forms in solvents (aliquot addition, visual)
Procedure: The experiments were carried out by adding the test solvent in aliquots to weighed portions of solid. Whether dissolution had occurred was judged by visual inspection after addition of each solvent aliquot. Solubility numbers were calculated by dividing the total amount of solvent used to dissolve the sample by the weight of the sample. […] The solubility number is expressed as “greater than or equal to” if dissolution occurred on addition of the first solvent aliquot.

[2] = Solid state stability of free base and salt forms under stress storage conditions;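 for Physical stability: Physical stability judged by XRPD check of crystalline form at end of study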
Procedure: The solid samples were analyzed for both chemical and chiral stability.

[3] = Dynamic vapor sorption (DVS) hygroscopicity
Procedure: Dynamic vapor sorption (DVS) was measured using DVS advantage (Surface Measurement Systems Ltd). The samples were tested under isotherm (25° C.) at a targeted RH of 0 to 95% full cycle in step mode. For an isotherm test, the chamber temperature is maintained by a water bath at constant 25.0±1.0° C. The relative humidity in the sample chamber is generated by combining different flows of wet and dry nitrogen with variable flow rates. The analysis was performed in 10% RH increments. Sampling rate is 1 sec save data rate is 20 sec. The dm/dt (%) value was set at 0.001 with a dm/dt window of 5 min., a minimum stability duration time of 10 min, and a maximum stage time of 180 min. The sample's equilibrium weight corresponding to each RH was recorded. A sorption isotherm is obtained by plotting equilibrium moisture content versus RH.

Compound: Cl.O=C1CC[C@H](N2C(=O)c3cccc(NCc4ccc(CN5CC(N6CCOCC6)C5)cc4F)c3C2=O)C(=O)N1 [HCl Salt]
- Solubility ([1]; 2-methyl tetrahydrofuran): <1000 µg/mL
- Solubility ([1]; 2-propanol): <1000 µg/mL
- Solubility ([1]; 95:5 2-PrOH/water): <1000 µg/mL
- Solubility ([1]; 95:5 ACN/water): 3000 µg/mL
- Solubility ([1]; 95:5 THF/water): 1000 µg/mL
- Solubility ([1]; 95:5 acetone/water): <1000 µg/mL
- Solubility ([1]; N-methyl pyrrolidone): 1000 µg/mL
- Solubility ([1]; acetone): <1000 µg/mL
- Solubility ([1]; acetonitrile): <1000 µg/mL
- Solubility ([1]; anisole): <1000 µg/mL
- Solubility ([1]; dichloromethane): <1000 µg/mL
- Solubility ([1]; dimethylacetamide): 1000 µg/mL
- Solubility ([1]; dimethylsulfoxide): 38000 µg/mL
- Solubility ([1]; ethanol): <1000 µg/mL
- Solubility ([1]; ethyl acetate): <1000 µg/mL
- Solubility ([1]; ethyl formate): <1000 µg/mL
- Solubility ([1]; isopropyl acetate): <1000 µg/mL
- Solubility ([1]; methanol): 2000 µg/mL
- Solubility ([1]; methyl ethyl ketone): <1000 µg/mL
- Solubility ([1]; methyl tert-butyl ether): <1000 µg/mL
- Solubility ([1]; nitromethane): <1000 µg/mL
- Solubility ([1]; tetrahydrofuran): <1000 µg/mL
- Solubility ([1]; toluene): <1000 µg/mL
- Solubility ([1]; water): 2000 µg/mL

Compound: Tosylate
- Chemical (%) ([2]; 40° C.): 99.18%
- Chiral (%) ([2]; 40° C.): 98.52%
- Physical stability ([2]; 40° C.): Stable
- Chemical (%) ([2]; 40° C./80% RH): 98.84%
- Chiral (%) ([2]; 40° C./80% RH): 98.48%
- Physical stability ([2]; 40° C./80% RH): Stable
- Chemical (%) ([2]; 60° C.): 99.01%
- Chiral (%) ([2]; 60° C.): 98.46%
- Physical stability ([2]; 60° C.): Stable
- Chemical (%) ([2]; 60° C./75% RH): 96.76%
- Chiral (%) ([2]; 60° C./75% RH): 98.10%
- Physical stability ([2]; 60° C./75% RH): Stable
- Chemical (%) ([2]; 70° C.): 98.58%
- Chiral (%) ([2]; 70° C.): 98.43%
- Physical stability ([2]; 70° C.): Stable
- Chemical (%) ([2]; 70° C./80% RH): 95.73%
- Chiral (%) ([2]; 70° C./80% RH): 97.64%
- Physical stability ([2]; 70° C./80% RH): Stable
- Chemical (%) ([2]; Ambient): 99.19%
- Chiral (%) ([2]; Ambient): 98.49%
- Solubility ([1]; 2-methyl tetrahydrofuran): <1000 µg/mL
- Solubility ([1]; 2-propanol): <1000 µg/mL
- Solubility ([1]; 95:5 2-PrOH/water): <1000 µg/mL
- Solubility ([1]; 95:5 ACN/water): 17000 µg/mL
- Solubility ([1]; 95:5 THF/water): 16000 µg/mL
- Solubility ([1]; 95:5 acetone/water): 3000 µg/mL
- Solubility ([1]; N-methyl pyrrolidone): 17000 µg/mL
- Solubility ([1]; acetone): <1000 µg/mL
- Solubility ([1]; acetonitrile): 1000 µg/mL
- Solubility ([1]; anisole): <1000 µg/mL
- Solubility ([1]; dichloromethane): 1000 µg/mL
- Solubility ([1]; dimethylacetamide): 30000 µg/mL
- Solubility ([1]; dimethylsulfoxide): 34000 µg/mL
- Solubility ([1]; ethanol): <1000 µg/mL
- Solubility ([1]; ethyl acetate): <1000 µg/mL
- Solubility ([1]; ethyl formate): <1000 µg/mL
- Solubility ([1]; isopropyl acetate): <1000 µg/mL
- Solubility ([1]; methanol): 3000 µg/mL
- Solubility ([1]; methyl ethyl ketone): <1000 µg/mL
- Solubility ([1]; methyl tert-butyl ether): <1000 µg/mL
- Solubility ([1]; nitromethane): 4000 µg/mL
- Solubility ([1]; tetrahydrofuran): <1000 µg/mL
- Solubility ([1]; toluene): <1000 µg/mL
- Solubility ([1]; water): 2000 µg/mL

Compound: O=C1CC[C@H](N2C(=O)c3cccc(NCc4ccc(CN5CC(N6CCOCC6)C5)cc4F)c3C2=O)C(=O)N1 [Compound 1 amorphous free base]
- hygroscopicity (DVS) ([3]; below 75% RH): relatively high hygroscopicity
- sorption/desorption reversibility (DVS) ([3]; during two full cycles): almost reversible
- moisture picked up (DVS) ([3]; from dry up to 90% RH): ~6.0 % wt

Compound: O=C1CC[C@H](N2C(=O)c3cccc(NCc4ccc(CN5CC(N6CCOCC6)C5)cc4F)c3C2=O)C(=O)N1 [Free Base]
- Solubility ([1]; 2-methyl tetrahydrofuran): 30000 µg/mL
- Solubility ([1]; 2-propanol): <1000 µg/mL
- Solubility ([1]; 95:5 2-PrOH/water): 2000 µg/mL
- Solubility ([1]; 95:5 ACN/water): 27000 µg/mL
- Solubility ([1]; 95:5 THF/water): 20000 µg/mL
- Solubility ([1]; 95:5 acetone/water): 31000 µg/mL
- Solubility ([1]; N-methyl pyrrolidone): 31000 µg/mL
- Solubility ([1]; acetone): 52000 µg/mL
- Solubility ([1]; acetonitrile): 33000 µg/mL
- Solubility ([1]; anisole): 26000 µg/mL
- Solubility ([1]; dichloromethane): 59000 µg/mL
- Solubility ([1]; dimethylacetamide): 34000 µg/mL
- Solubility ([1]; ethanol): 1000 µg/mL
- Solubility ([1]; ethyl acetate): 33000 µg/mL
- Solubility ([1]; ethyl formate): 30000 µg/mL
- Solubility ([1]; isopropyl acetate): 6000 µg/mL
- Solubility ([1]; methanol): 2000 µg/mL
- Solubility ([1]; methyl ethyl ketone): 29000 µg/mL
- Solubility ([1]; methyl tert-butyl ether): <1000 µg/mL
- Solubility ([1]; nitromethane): 34000 µg/mL
- Solubility ([1]; tetrahydrofuran): 28000 µg/mL
- Solubility ([1]; toluene): 3000 µg/mL
- Solubility ([1]; water): <1000 µg/mL

Compound: Cl.O=C1CC[C@H](N2C(=O)c3cccc(NCc4ccc(CN5CC(N6CCOCC6)C5)cc4F)c3C2=O)C(=O)N1 [HC1 salt]
- Chemical (%) ([2]; 40° C.): 99.13%
- Chiral (%) ([2]; 40° C.): 99.29%
- Physical stability ([2]; 40° C.): Stable
- Chemical (%) ([2]; 40° C./80% RH): 99.56%
- Chiral (%) ([2]; 40° C./80% RH): 99.22%
- Physical stability ([2]; 40° C./80% RH): Stable
- Chemical (%) ([2]; 60° C.): 99.35%
- Chiral (%) ([2]; 60° C.): 99.02%
- Physical stability ([2]; 60° C.): Stable
- Chemical (%) ([2]; 60° C./75% RH): 99.56%
- Chiral (%) ([2]; 60° C./75% RH): 98.70%
- Physical stability ([2]; 60° C./75% RH): Stable
- Chemical (%) ([2]; 70° C.): 99.32%
- Chiral (%) ([2]; 70° C.): 99.13%
- Physical stability ([2]; 70° C.): Stable
- Chemical (%) ([2]; 70° C./80% RH): 99.43%
- Chiral (%) ([2]; 70° C./80% RH): 98.91%
- Physical stability ([2]; 70° C./80% RH): Stable
- Chemical (%) ([2]; Ambient): 99.08%
- Chiral (%) ([2]; Ambient): 99.26%

Compound: Fumarate
- Chemical (%) ([2]; 40° C.): 98.64%
- Chiral (%) ([2]; 40° C.): 95.39%
- Physical stability ([2]; 40° C.): Stable
- Chemical (%) ([2]; 40° C./80% RH): 98.69%
- Chiral (%) ([2]; 40° C./80% RH): 94.55%
- Physical stability ([2]; 40° C./80% RH): Stable
- Chemical (%) ([2]; 60° C.): 97.43%
- Chiral (%) ([2]; 60° C.): 95.54%
- Physical stability ([2]; 60° C.): Stable
- Chemical (%) ([2]; 60° C./75% RH): 98.19%
- Chiral (%) ([2]; 60° C./75% RH): 93.14%
- Physical stability ([2]; 60° C./75% RH): Stable
- Chemical (%) ([2]; 70° C.): 95.94%
- Chiral (%) ([2]; 70° C.): 95.11%
- Physical stability ([2]; 70° C.): Stable
- Chemical (%) ([2]; 70° C./80% RH): 93.79%
- Chiral (%) ([2]; 70° C./80% RH): 91.52%
- Physical stability ([2]; 70° C./80% RH): Stable
- Chemical (%) ([2]; Ambient): 98.77%
- Chiral (%) ([2]; Ambient): 95.82%
- Solubility ([1]; 2-methyl tetrahydrofuran): <1000 µg/mL
- Solubility ([1]; 2-propanol): <1000 µg/mL
- Solubility ([1]; 95:5 2-PrOH/water): 1000 µg/mL
- Solubility ([1]; 95:5 ACN/water): 2000 µg/mL
- Solubility ([1]; 95:5 THF/water): 8000 µg/mL
- Solubility ([1]; 95:5 acetone/water): 2000 µg/mL
- Solubility ([1]; N-methyl pyrrolidone): 17000 µg/mL
- Solubility ([1]; acetone): <1000 µg/mL
- Solubility ([1]; acetonitrile): <1000 µg/mL
- Solubility ([1]; anisole): <1000 µg/mL
- Solubility ([1]; dichloromethane): <1000 µg/mL
- Solubility ([1]; dimethylacetamide): 23000 µg/mL
- Solubility ([1]; dimethylsulfoxide): 36000 µg/mL
- Solubility ([1]; ethanol): <1000 µg/mL
- Solubility ([1]; ethyl acetate): <1000 µg/mL
- Solubility ([1]; ethyl formate): <1000 µg/mL
- Solubility ([1]; isopropyl acetate): <1000 µg/mL
- Solubility ([1]; methanol): 3000 µg/mL
- Solubility ([1]; methyl ethyl ketone): <1000 µg/mL
- Solubility ([1]; methyl tert-butyl ether): <1000 µg/mL
- Solubility ([1]; nitromethane): <1000 µg/mL
- Solubility ([1]; tetrahydrofuran): 1000 µg/mL
- Solubility ([1]; toluene): <1000 µg/mL
- Solubility ([1]; water): 2000 µg/mL

Compound: O=C1CC[C@H](N2C(=O)c3cccc(NCc4ccc(CN5CC(N6CCOCC6)C5)cc4F)c3C2=O)C(=O)N1 [Free base]
- Chemical (%) ([2]; 40° C.): 98.44%
- Chiral (%) ([2]; 40° C.): 99.03%
- Chemical (%) ([2]; 40° C./80% RH): 98.56%
- Chiral (%) ([2]; 40° C./80% RH): 99.02%
- Chemical (%) ([2]; 60° C.): 95.80%
- Chiral (%) ([2]; 60° C.): 98.69%
- Physical stability ([2]; 60° C.): Unstable
- Chemical (%) ([2]; 60° C./75% RH): 98.10%
- Chiral (%) ([2]; 60° C./75% RH): 83.04%
- Physical stability ([2]; 60° C./75% RH): Unstable
- Chemical (%) ([2]; 70° C.): 85.68%
- Chiral (%) ([2]; 70° C.): 95.57%
- Physical stability ([2]; 70° C.): Unstable
- Chemical (%) ([2]; 70° C./80% RH): 93.29%
- Chiral (%) ([2]; 70° C./80% RH): 52.01%
- Physical stability ([2]; 70° C./80% RH): Unstable
- Chemical (%) ([2]; Ambient): 98.95%
- Chiral (%) ([2]; Ambient): 99.16%
